Values after ≈ are worked out from the molar mass of the structure shown. Read-outs that look alike come from different tables or passages of the source.
What was measured:
[1] = solubility in water; format: physicochemical
Description: The n-octylsparsomycin is poorly dissolved in water (about 0.2 mg/ml water), whereas benzylsparsomycin is dissolved well in water (1.5 mg/ml water). As a consequence, the use of the latter compound is highly attractive.

[2] = acute toxicity (LDx values); format: in vivo; conditions: in vivo, mouse
Excerpt: (§1) The acute LDx values (lethal dose for x% of the animals) are shown below.

[3] = system: ribosomes from Saccharomyces cerevisiae (protein synthesis); experiment: inhibition of polyphenylalanine synthesis, cell-free system; format: biochemical; conditions: 30 min, read-out: ED50 s.c. polyphe
Description: (§2) The activity of the novel compounds was also measured in two cell-free systems, namely Saccharomyces cerevisiae and E. coli, a […]. The inhibition of the protein biosynthesis was measured, and this in two ways, by means of both the fragment reaction (R. E. Monro, Methods Enzymol. 1971, 20, 472) and the inhibition of the polyphenylalanine synthesis (N. W. Nirenberg, H. Matthei, Proc.Natl. Acad. Sci. USA 1961, 47, 1588). The concentration of sparsomycin or an analog giving 50% inhibition of the protein synthesis relative to the control is given as ED50.
(§3) Polyphenylalanine synthesis. The reaction mixture was slightly different for E. coli and for yeast.
E. coli. The reaction mixture (50 μl) contained 65 mM Tris-HCl pH 7.6, 15 mM MgCl2, 90 mM KCl, 15 mM β-mercaptoethanol, 1 mM GTP, 10 mM ATP, 0.2 mg/ml of polyuridylic acid, 1.5 mg/ml of tRNA, 10 μM of ribosomes, 2.5 mg/ml of phosphoenolpyruvate, 20 μg/ml of pyruvate kinase, the required concentration of sparsomycin analog, as indicated in the text, and 5 μl of supernatant fraction S-100. (^3 H)phenylalanine 30 μM (about 60 cpm/pmol) was added to start the reaction. Incubation was at 37° C. for 30 min. The reaction was stopped by addition of 1 ml of 10% TCA and the samples filtered through glass fiber. The filters were washed with 10 ml of cold 10% TCA, dried and counted for radioactivity.
Yeast. The test was carried out as indicated above for E. Coli but replacing the phosphoenol pyruvate and pyruvate kinase by creatine phosphokinase (50 μg/ml) and creatine phosphate (20 mM). The incubation was performed at 30° C. for 30 min. and the samples processed as above.
In these conditions the control samples polymerized 3 to […] 14 molecules of phenylalanine per ribosome in the case of yeast and E. coli respectively. […]

[4] = system: ribosomes from Saccharomyces cerevisiae (peptidyl transferase); experiment: fragment reaction, cell-free system; format: biochemical; conditions: 30% ethanol in water, 30 min, read-out: ED50 s.c. fragment reaction
Description: as §2
(§4) Fragment reaction. The reaction described originally by Monro (see reference in the text) was carried out in 150 μl of 33 mM Tris-HCl pH 7.4, 270 mM KCl, 13 mM magnesium acetate containing 1 mg/ml of ribosomes, 2.10^-3 M puromycin, 1 pmol of (^3 H)Leu-ACCAC(U), the required concentration of sparsomycin analog as indicated in the text and 33% ethanol. The reaction was initiated by the addition of the alcohol and allowed to proceed at 0° C. for 30 min. and then stopped by the addition of 100 μl of 0.3M sodium acetate pH 5.5 saturated with MgSO4. The samples were extracted with 1.5 ml of ethyl acetate and 1 ml of the organic phase was checked for radioactivity.
(§5) The 3' terminal pentanucleotide (^3 H)Leu-ACCAC(U) was prepared from (^3 H)Leu-tRNA by ribonuclease T1 as described (Monro, as above).
(§6) Ribosomes and supernatant fractions from E. coli and Saccharomyces cerevisiae were prepared according to standard procedures (Staehelin, T. and Maglott D. R. (1971). Methods Enzymol. 20, 449-456; Sanchez-Madrid, F., Reyes, R., Conde, P. and Ballesta, J. P. G. (1979) Eur. J. Biochem. 98, 409-416).

[5] = system: ribosomes from E. coli (peptidyl transferase); experiment: fragment reaction, cell-free system; format: biochemical; conditions: 30% ethanol in water, 30 min, read-out: ED50 E. coli fragment reaction
Description: as §2, §4, §5, §6

[6] = system: leukemia L 1210 cells; experiment: in-vitro clonogenic L 1210 assay (inhibition of colony formation in soft agar); format: cell-based; conditions: for IC50: Mus musculus, L1210, 72 h, read-out: ID50 (dose giving 50% inhibition of L 1210 colony formation)
Description: The in-vitro clonogenic assay was effected in leukemia L 1210 cells in soft agar medium (0.3%). There is a good correlation between the activity in vitro and that in vivo of the medicaments investigated. On the basis of the findings in the in-vitro analysis, therefore, the in-vivo activity can be predicted with good results. In the analysis, the inhibition of the L 1210 colony formation by sparsomycin and derivates thereof is determined for various concentrations, and the dose giving 50% inhibition of the colony formation, as compared with non-treated control cells is calculated (ID50). The analysis is carried out as follows (variant of the method described in Cancer Chemother.Rep. (1967), 51, 451).
From a suspension culture one hundred L 1210 cells are plated out in 35 mm culture dishes (Falcon) containing 1 ml soft agar culture medium and the compound to be investigated in suitable concentrations. The soft agar culture medium consists of Dulbecco's medium supplemented with 20% horse serum, 60 μmole 2-mercaptoethanol, 20 mg/ml L-asparagine, 75 mg/ml DEAE dextran (molecular weight 2×10^6) and 0.3% bacto agar (Difco). The culture dishes were incubated at 37° C. in an atmosphere of 10% CO2 in humidified air for 3 days. After this period of continuous exposure to the medicament the colonies were counted and dose-effect curves made. From these curves, the medicament dose is calculated which causes 50% inhibition of the colony formation as compared with non-treated control cells.

[7] = system: ribosomes from E. coli (protein synthesis); experiment: inhibition of polyphenylalanine synthesis, cell-free system; format: biochemical; conditions: 30 min, read-out: ED50 E. coli polyphe
Description: The activity of the novel compounds was also measured in two cell-free systems, namely Saccharomyces cerevisiae and E. coli, a prokaryotic and a eukaryotic system, respectively.
as §3
E. coli. […] (^3 H)phenylalanine 30 μM (about 60 cpm/pmol) was added to start the reaction. Incubation was at 37° C. for 30 min. The reaction was stopped by addition of 1 ml of 10% TCA and the samples filtered through glass fiber. The filters were washed with 10 ml of cold 10% TCA, dried and counted for radioactivity.

[8] = pharmacokinetics in dog; conditions: iv
[9] = system: whole reticulocytes; conditions: Biochem.Biophys. Acta (1966), 119, 109; cited from earlier work
[10] = system: mouse; experiment: acute toxicity (LDx values); format: in vivo; conditions: i.p.
Excerpt: as §1

[11] = clinical tests (Cancer.Chemother.Rep. (1969), 43, 29); cited from earlier work
[12] = L 1210 cells, soft agar 0.3%, 3 days continuous exposure

| SMILES | solubility ([1]; read-out: solubility in water) [µg/mL] | IC50 [3] [µM] | IC50 [4] [µM] | IC50 [5] [µM] | IC50 [6, 12] [µg/mL] | IC50 [7] [µM] | AUC ([8]; in vivo, 0.7 mg/kg) [ng·h/mL] | half-life ([8]; in vivo, 0.7 mg/kg) [h] | IC50 [6] [µg/mL] | further results |
| --- | --- | --- | --- | --- | --- | --- | --- | --- | --- | --- |
| CCCCCCCCSC[S@+]([O-])C[C@H](CO)NC(=O)/C=C/c1c(C)[nH]c(=O)[nH]c1=O [n-octylsparsomycin, n-octyl-sparsomycin (Sc -Rs)] | ~200 (≈ 435 µM) | 0.35 | 180 | 80 | 0.047 (≈ 0.102 µM) | 1.5 | 1100 | 1.1 |  | LD50 ([2]; iv): > 30 mg/kg; activity relative to sparsomycin proper ([6]; L 1210 colony formation, concentrations in ng/ml): approximately 3; activity relative to sparsomycin, concentrations expressed in μmole/ml ([6]; L 1210 colony formation, concentrations in μmole/ml): approximately four times higher; dose excreted ([8]; bile, 0.7 mg/kg): 3.4%; AUC ([8]; in vivo, 0.9 mg/kg): 1200 ng·h/mL; half-life ([8]; in vivo, 0.9 mg/kg): 1.6 h; dose excreted ([8]; urine, 0.7 mg/kg): 0% |
| CSC[S@+]([O-])C[C@H](COC(C)=O)NC(=O)/C=C/c1c(C)[nH]c(=O)[nH]c1=O [O--acetylsparsomycin, O-acetyl-sparsomycin (Sc -Rs)] |  | 3 | 50 | 15 | 0.15 (≈ 0.372 µM) | 8 |  |  |  |  |
| CSC[S@+]([O-])C[C@H](CO)NC(=O)/C=C/c1c(C)[nH]c(=O)[nH]c1=O [sparsomycin, Sparsomycin (Sc -Rs)] |  | 4 | 15 | 6 |  | 9 | 1300 | 1.1 | 0.15 (≈ 0.415 µM) | activity against whole reticulocytes [9]: not active; LD50 ([2]; ip): 14 mg/kg; LD10 [10]: 8.0 mg per kg mouse; toxicity in clinical tests [11]: eye toxicity; dose excreted ([8]; in vivo, 0.7 mg/kg, Recovery in urine, i.v. bolus): 24%; AUC ([8]; in vivo, 1.48 mg/kg): 10800 ng·h/mL; half-life ([8]; in vivo, 1.48 mg/kg): 2.3 h; dose excreted ([8]; in vivo, 1.48 mg/kg, Recovery in gall liquid, i.v. bolus): 2%; dose excreted ([8]; in vivo, 1.48 mg/kg, Recovery in urine, i.v. bolus): 55% |
| Cc1[nH]c(=O)[nH]c(=O)c1C=CC(=O)NC(CO)C[S+]([O-])CSCc1ccccc1 (stereo not shown) [benzylsparsomycin, Benzylsparsomycin (Sc -Rs)] | 1500 (≈ 3430 µM) |  |  |  |  | 0.8 |  |  | 0.048 (≈ 0.11 µM) | solubility ([1]; H2O, pH=7, read-out: Solubility in H2O (pH=7)): 1500 µg/mL (≈ 3430 µM) |
